{"source": "patent US20210386829A1", "about": "“COMPOSITIONS AND METHODS FOR MODULATING CGRP SIGNALING TO REGULATE INNATE LYMPHOID CELL INFLAMMATORY RESPONSES” (The Broad Institute, Inc., priority 2018, published 2021)", "tested_on": "IL-33-induced airway inflammation in RAG2 KO mice", "assay": "IL-33-induced airway inflammation in RAG2 KO mice, intranasal co-administration of CGRP", "type": "in vivo, mouse", "conditions": "IL-33+CGRP vs IL-33 alone", "from_the_text": "Animals. All experiments involving mice were approved by the Institutional Animal Care and Use Committee (IACUC) at Brigham and Women's Hospital. Mice were maintained in the animal facility at Brigham and Women's Hospital under specific pathogen-free conditions with food and water ad libitum and a 12-hour dark/light cycle. Mice were age- and sex-matched for experiments and were randomly assigned to experimental groups. C57BL/6J mice and RAG2 KO mice were purchased from the Jackson Laboratory. CGRP-GFP-hDTR mice were kindly provided by I. Chiu (Harvard Medical School, Boston).\nCytokine-induced airway inflammation. Mice received nasally 500 ng IL-25, 500 ng IL-33, 20 ug NMU or 6.65 ug CGRP diluted in DPBS for three consecutive days. For nasal administration, mice were lightly anesthetized with Isoflurane (Cat #07-893-1389; Patterson Veterinary). For induction of inflammatory ILC2s, mice received intraperitoneally 500 ng IL-25 for three consecutive days. One day after the last treatment, mice were euthanized and perfused with 8 ml cold PBS via the right heart ventricle. After exposure of the trachea, a small incision was made at the top of the trachea and a curved gavage needle was inserted. Lungs were washed with 1.5 ml cold PBS via the needle and the retrieved bronchoalveolar lavage fluid was centrifuged at 1300 rpm for 5 min at 4 C. After centrifugation, the supernatant was frozen at −20° C. and the cell pellet was resuspended in 250 ul complete medium and stored on ice until flow cytometric analysis. The post-caval lung lobe was transferred into 10% buffered formalin and stored at room temperature until paraffin embedding for histological analysis. The other lung lobes were dissociated using the lung dissociation kit (Cat #130-095-927; Miltenyi Biotec) and automated tissue dissociator (gentleMACS; Miltenyi Biotec) as described above with the adjustment that after running program lung_02, the single cell suspension was centrifuged at 1300 rpm for 5 min at 4° C. and 1 ml of the supernatant was frozen at −20° C. Single-cell suspension was resuspended in complete cell culture medium and stored on ice until further processing.\nFor cell counts, lung cells were transferred into FACS tubes and stained with 7AAD. Precision Count Beads (Cat #424902; BioLegend) were added according to manufacturer's instructions. Cells and beads were acquired on a BD LSRFortessa (BD Biosciences) and cell numbers were calculated based on number of acquired live (7AAD−) cells and number of acquired beads.\nFor flow cytometric analysis, lung cells were transferred into a 96 well V-bottom plate and stained with surface antibodies for 20 min at 4° C. in the dark. Cells were washed twice with DPBS containing 2% fetal bovine serum and transferred into 1.2 ml tubes for analysis by flow cytometry. For intracellular cytokine staining, cells were incubated in complete cell culture medium with 50 ng/ml phorbol 12-myristate 13-acetate (Sigma-Aldrich), 1 uM ionomycin (Sigma-Aldrich) and GolgiStop (Cat #554724; BD Biosciences) in a humidified incubator at 37° C. and 10% CO2. After 5 hours, cells were transferred into 96 well V-bottom plate, stained with Fixable Viability Dye eFluor 506 (Cat #65-0866-14; Thermo Fisher) and surface antibodies for 20 min at 4° C. in the dark and washed twice with DPBS containing 2% fetal bovine serum. Then, cells were incubated with BD Cytofix/Cytoperm Buffer (Cat #51-2090KZ; BD Biosciences) for 20 min, followed by a wash with BD Perm/Wash Buffer (Cat #51-2091KZ; BD Biosciences). Subsequently, cells were incubated with antibodies targeting intracellular proteins diluted in BD Perm/Wash Buffer for 20 min and after two wash steps, transferred into 1.2 ml tubes for analysis by flow cytometry. […]"}
{"substance": "CGRP: neuropeptide calcitonin gene-related peptide (encoded by Calca), ligand of the Ramp1/Calcrl receptor; given at 100 nM in vitro, 6.65 ug nasally", "values": [{"measurement": "Il5 and Il13 transcripts in lung tissue", "value": "significantly reduced"}, {"measurement": "concentration of IL-5 and IL-13 protein in lung homogenates and BALF", "value": "significantly reduced"}, {"measurement": "eosinophil numbers in lung tissue and BALF", "value": "significantly reduced"}, {"measurement": "frequency of IL-5-positive ILCs", "value": "no difference"}, {"measurement": "frequency of IL-13-positive ILC2s", "value": "significantly lower"}, {"measurement": "total numbers of lung ILCs", "value": "marked reduction"}, {"measurement": "frequency of lung ILCs", "setting": "intranasal, three consecutive days", "value": "non-significant trend towards a reduced frequency"}]}
